Non-standard residues stand in square brackets, D forms with d. Residues, ends and D or L forms follow the SMILES beside them. No end group written: not given here. *: point of attachment. pGlu = O=C1CC[C@@H](C(=O)O)N1; Orn = NCCC[C@H](N)C(=O)O; Bn = c1ccc(C*)cc1
System: LRF (luteinizing hormone releasing factor) induced luteinizing hormone (LH) release
Assay: In vitro LRF antagonist test in rat anterior pituitary cell cultures
Assay type: cell-based
Description: Nonapeptides of this invention were screened for LRF antagonist activity in vitro using rat anterior pituitary cell cultures as described by Vale et al. [Endocrinology, 91, 562 (1972)]. The inhibition of LRF (luteinizing hormone releasing factor) induced luteinizing hormone (LH) release into the culture medium is the endpoint in this in vitro bioassay.

Compound | LH Value (compound Molar Conc. 1×10^-6, LH released into culture medium) | % LH Release Inhibition (compound Molar Conc. 1×10^-6, inhibition of LRF induced LH release) | LH Value (LRF alone, Molar Conc. 2.5×10^-10)
CCNC(=O)[C@@H]1CCCN1C(=O)[C@H](CCCN)NC(=O)[C@H](CC(C)C)NC(=O)[C@@H](C)NC(=O)[C@H](COCc1ccccc1)NC(=O)[C@H](Cc1ccc(OCc2ccccc2)cc1)NC(=O)[C@H](Cc1c[nH]c2ccccc12)NC(=O)[C@@H](Cc1ccccc1)NC(=O)[C@@H]1CCC(=O)N1 [L-pyroglutamyl-D-phenylalanyl-L-tryptophyl-O-benzyl-L-tyrosyl-O-benzyl- L-seryl-D-alanyl-L-leucyl-L-ornithyl-L-proline N-ethylamide] ([pGlu][dF]WY(Bn)S(Bn)[dA]L[Orn]P-NHEt) | 19.15 ng/mL | 61% | 
LRF Control: luteinizing hormone releasing factor, also referred to as luteinizing hormone releasing hormone, LH-RH; stimulates secretion of luteinizing hormone (QHWSYGLRPG; ends and bridges not checked; UniProt P01148 24-33, looked up) [reference compound] |  |  | 39.98 ng/mL
